Here are results for three compounds from paper PMC7556269, “Metabolic Profiling of a CB2 Agonist, AM9338, Using LC-MS and Microcoil-NMR: Identification of a Novel Dihydroxy Adamantyl Metabolite” (Frontiers in Pharmacology, 2020).

Where two headings read alike, the source gives them in different places.

Series [1] is described as follows: Microsomal stability, mouse liver microsomes. The series is classed as in vitro ADME. The arrangement: microsomal CLint / half-life: dose or concentration left out as unconfirmed. The note with it: for half-life: mouse, liver microsomes, pH 7.4, mouse liver microsomes, read-out: t1/2 (min) (Mean ± S.D.); for CLint scaled: read-out: CLint (ml/min/kg) (Mean ± S.D.). As to the method:
(§1) AM9338 (50 µM) was incubated at 37 °C with mouse, rat or human microsomes (0.5 mg/ml) in 50 mM potassium phosphate buffer, pH 7.4. Samples were taken immediately after the addition of NADPH (final concentration 1 mM) and again after 30 and 60 min of incubation; the reaction was terminated through protein precipitation with ice cold methanol followed by centrifugation at 4000 g for 10 min. The resulting supernatant was analyzed using LC-MS/MS.
(§2) Chromatographic separation of AM9338 and its metabolites was achieved using a Phenomenex Kinetex F5 column (4.6 × 150 mm, 100 Å pore size, 2.6 μm particle size) on a Thermo Accela HPLC (Thermo, San Jose, CA, USA) coupled to an API-4000 Q-Trap (AB Sciex, Concord, Ontario, Canada). Samples were eluted with mobile phases consisting of 0.1 % formic acid in acetonitrile (A) and 0.1 % formic acid in HPLC grade water (B) starting at 10% A for 2.6 min, ramping to 90%A over the next 9.4 min, and holding at 90%A for 2.8 min before returning to initial conditions for a total run time of 18.5 min; the flow rate was 0.8 ml/min and the autosampler and column oven were set to 4°C and 35°C, respectively. The mass spectrometer was operated in electrospray ionization (ESI) positive ion mode with the following conditions: ion spray voltage = 5,500 V; heater temperature = 550 °C; curtain gas = 20 psi; Q2 collision gas = set as high; source gas 1 (GS1) = 50 psi; source gas 2 (GS2) = 55 psi. High purity nitrogen was used as a source and collision gas and the compounds were detected in the multiple reaction monitoring (MRM) mode.
(§3) The susceptibility of AM9338 to CYP enzymes or hydrolytic enzymes was tested at 37°C in human, mouse and rat liver microsomes, in the presence or absence of NADPH. […] The disappearance of AM9338 in microsomes followed a first-order elimination kinetics with low elimination half-life (t1/2 < 4 min) and high intrinsic microsomal clearance of microsomal protein across all three species as shown in Table 1 .
On the technique in general: Microsomes from liver hold many membrane-bound enzymes, among them those of drug oxidation.

The nature of series [2]: Microsomal stability, rat liver microsomes. The series is classed as in vitro ADME. More on the design: microsomal CLint / half-life: dose or concentration left out as unconfirmed. The note with it: for CLint scaled: read-out: CLint (ml/min/kg) (Mean ± S.D.); for half-life: rat, liver microsomes, pH 7.4, rat liver microsomes, read-out: t1/2 (min) (Mean ± S.D.). As to the method: as §1, §2, §3

Series [3] is described as follows: Microsomal stability, human liver microsomes. It counts as in vitro ADME. The note with it: for half-life: human, liver microsomes, pH 7.4, human liver microsomes, read-out: t1/2 (min) (Mean ± S.D.); for CLint scaled: read-out: CLint (ml/min/kg) (Mean ± S.D.). More on the design: half-life / microsomal CLint: dose or concentration left out as unconfirmed. As to the method:
as §1, §2, §3

The nature of series [4]: Non-compartmental pharmacokinetics in mice after i.v. and oral dosing. It counts as in vivo. To be noted: for bioavailability: oral 8 mg/kg vs I.V. 2 mg/kg. As to the method:
The non-compartmental pharmacokinetic parameters following intravenous (2 mg/kg, i.v.) and oral (8 mg/kg, p.o.) dosing are presented in Table 2 .

A further series has as its target hCB2 (Homo sapiens, UniProt P34972). The series can be described thus: CB2 receptor binding affinity (hCB2). To be noted: stated in introduction, no method or reference given.
The target of the next series is mCB2 (Mus musculus, UniProt P47936). Briefly: CB2 receptor binding affinity (mCB2). The note with it: stated in introduction, no method or reference given.
Sequence of mCB2 (P47936 whole entry): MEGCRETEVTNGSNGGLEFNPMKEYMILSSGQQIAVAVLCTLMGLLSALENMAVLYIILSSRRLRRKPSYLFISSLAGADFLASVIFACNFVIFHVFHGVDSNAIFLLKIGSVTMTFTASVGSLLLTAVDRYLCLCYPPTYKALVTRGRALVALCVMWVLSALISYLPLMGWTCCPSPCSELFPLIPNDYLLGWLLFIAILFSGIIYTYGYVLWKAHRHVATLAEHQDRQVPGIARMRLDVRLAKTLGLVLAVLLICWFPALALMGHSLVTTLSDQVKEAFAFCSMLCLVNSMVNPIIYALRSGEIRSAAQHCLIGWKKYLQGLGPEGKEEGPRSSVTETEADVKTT
Series [5] can be described thus: Metabolite profile after incubation with pooled mouse liver microsomes (LC-UV/LC-MS). To be noted: NADPH, 37°C, 60 min. It counts as in vitro ADME. As to the method:
as §1
Reconstituted extracts from the microsomal incubations were injected on a Supelco Discovery column C18, 250 × 4.6 mm column (Millipore-Sigma, St Louis, MO) on Thermo Accela HPLC system (Thermo Fisher Scientific, Austin, TX). The column temperature was maintained at 35°C, the flow rate was 0.8 ml/min, the injection volume was 20 µl and UV detector was set at 300 nm, maximal absorbance wavelength for AM9338. […]
The metabolites M3 (trihydroxy), M4 (trihydroxy) and M8 (Ketone-hydroxyl) appear to be the metabolic end products of AM9338. […] The estimated relative percentage of each metabolite was calculated using the UV peak areas at the end of the incubation: M1 (49%), M2 (37%), M3 (1%), M4 (5%), M5 (4%), M7 (3%), M8 (1%), and M9 (2%). […] Human (HLM), Mouse (MLM) and rat liver microsomes (RLM) generated the very similar metabolite profile, with M1 and M2 being the major metabolic products, appearing in similar order of formation and relative quantities. […]

The target in a further series is CYP3A4 (Homo sapiens, UniProt P08684). The series can be described thus: CYP phenotyping using CYP specific chemical inhibitors. It counts as in vitro ADME. To be noted: preliminary.
Sequence of CYP3A4 (P08684 whole entry): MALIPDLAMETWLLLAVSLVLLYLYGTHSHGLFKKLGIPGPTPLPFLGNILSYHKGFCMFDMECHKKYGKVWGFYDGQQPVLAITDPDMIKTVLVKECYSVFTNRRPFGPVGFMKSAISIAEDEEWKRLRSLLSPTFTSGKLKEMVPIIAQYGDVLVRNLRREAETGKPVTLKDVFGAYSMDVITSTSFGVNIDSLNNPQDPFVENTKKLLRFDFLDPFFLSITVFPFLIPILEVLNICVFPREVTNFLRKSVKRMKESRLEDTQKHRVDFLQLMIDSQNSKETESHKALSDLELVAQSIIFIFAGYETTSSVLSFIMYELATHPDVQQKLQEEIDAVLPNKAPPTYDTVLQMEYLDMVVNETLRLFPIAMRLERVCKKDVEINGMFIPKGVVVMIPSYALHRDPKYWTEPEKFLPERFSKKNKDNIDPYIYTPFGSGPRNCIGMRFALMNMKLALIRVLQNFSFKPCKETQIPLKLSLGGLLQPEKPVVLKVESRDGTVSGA
Setting [6] is: mouse, iv, I.V. 2 mg/kg, plasma.
Where [7] appears, read: mouse, plasma, po, 8 mg/kg, oral 8 mg/kg.

Sequence of hCB2 (P34972 whole entry): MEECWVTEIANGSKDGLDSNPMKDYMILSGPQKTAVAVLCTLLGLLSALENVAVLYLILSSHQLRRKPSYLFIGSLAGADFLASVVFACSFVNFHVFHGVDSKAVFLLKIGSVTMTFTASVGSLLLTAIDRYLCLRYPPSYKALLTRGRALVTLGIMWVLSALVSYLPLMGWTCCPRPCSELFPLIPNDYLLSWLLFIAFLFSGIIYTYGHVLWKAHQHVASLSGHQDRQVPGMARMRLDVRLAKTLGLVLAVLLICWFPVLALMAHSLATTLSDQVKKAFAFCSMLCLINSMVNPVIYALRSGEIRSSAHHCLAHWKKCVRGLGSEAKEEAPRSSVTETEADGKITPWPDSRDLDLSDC

On to `O=C(NC12CC3CC(C1)C(O)C(C2)C3O)c1nn(CCCn2ccnn2)c2ccccc12` (stereo not shown) [M2], for which the half-life in series [1] (37°C, presence of NADPH) was 10.5 ± 0.64 min; in series [2] (37°C, presence of NADPH), 26.8 ± 6.6 min; in series [3] (37°C, presence of NADPH) it was 30.8 ± 6.7 min. Also, the CLint scaled in series [1] (pH 7.4, mouse liver microsomes) is 520 ± 54 mL/min/kg; in series [2] (pH 7.4, rat liver microsomes), 93 ± 10 mL/min/kg; in series [3] (pH 7.4, human liver microsomes), 54 ± 4 mL/min/kg.

For the compound `O=C(NC12CC3CC(C1)C(O)C(C3)C2)c1nn(CCCn2ccnn2)c2ccccc12` (stereo not shown) [M1], the half-life in series [1] (37°C, presence of NADPH) amounted to 2.02 ± 0.11 min; in series [2] (37°C, presence of NADPH), 4.41 ± 0.31 min; in series [3] (37°C, presence of NADPH), 13.1 ± 2.48 min. Besides, the CLint scaled came out at 2730 ± 223 mL/min/kg in series [1] (pH 7.4, mouse liver microsomes); 565 ± 4.4 mL/min/kg in series [2] (pH 7.4, rat liver microsomes); 121 ± 20 mL/min/kg in series [3] (pH 7.4, human liver microsomes).

Regarding `O=C(NC12CC3CC(CC(C3)C1)C2)c1nn(CCCn2ccnn2)c2ccccc12` [AM9338, 1-(3-(1H-1,2,3-triazol-1-yl)propyl)-N-(adamantan-1-yl)-1H-indazole-3-carboxamide], the “Systemic plasma clearance as share of hepatic blood flow” value in series [4] (I.V. 2 mg/kg) is given as 85 % of hepatic blood flow. Moreover, in series [4] (I.V. 2 mg/kg, terminal half-life, 2 mg/kg), the t1/2 turned out to be 16.1 min. Also, the AUC was 438 ng·h/mL in series [4] (setting [6]) and 267 ng·h/mL in series [4] (mouse, oral 8 mg/kg, plasma). In series [4] (setting [6]), the C0 amounted to 2110 ng/mL. In series [4] (setting [6]), this compound gave a clearance of 75.9 mL/min/kg. Also, the half-life in series [4] (mouse, plasma, iv, 2 mg/kg, I.V. 2 mg/kg, terminal half-life) is 16 min; in series [4] (setting [7]), 113 min; in series [3] (37°C, presence of NADPH) it was less than 4 min. Moreover, the Vd turned out to be 1.76 L/kg in series [4] (mouse, plasma, iv, I.V. 2 mg/kg, read-out: Vd) and 79.9 L/kg in series [4] (oral 8 mg/kg). The Tmax in series [4] (mouse, plasma, oral 8 mg/kg) is 1 h. The bioavailability in series [4] (mouse, plasma, oral, 8 mg/kg, read-out: Bioavailability) is roughly 15%; in series [4] it was 15.5%. For the same compound, in series [4] (setting [7]), the Cmax amounted to 240 ng/mL. The CL in series [4] (oral 8 mg/kg) was determined as 489 mL/min/kg. In addition, the “Cmax (Oral)” value in series [4] (oral 8 mg/kg, plasma, 8 mg/kg) turned out to be 0.239 ± 0.230 µg/mL. The Ki was 3 nM at hCB2 and 2.3 nM at mCB2. For the same compound, the “Stability in absence of NADPH” value is “stable” in series [1] (mouse microsomes, 37°C, no NADPH, tested up to 2 h); “stable” in series [2] (rat microsomes, 37°C, no NADPH, tested up to 2 h); “stable” in series [3] (human microsomes, 37°C, no NADPH, tested up to 2 h). Moreover, the microsomal CLint in series [1] (pH 7.4, mouse liver microsomes, presence of NADPH, read-out: CLint (µl/min/mg) (Mean ± S.D.)) came out at 2950 ± 282 µL/min/mg; in series [2] (pH 7.4, rat liver microsomes, presence of NADPH, read-out: CLint (µl/min/mg) (Mean ± S.D.)), 830 ± 136 µL/min/mg; in series [3] (pH 7.4, human liver microsomes, presence of NADPH, read-out: CLint (µl/min/mg) (Mean ± S.D.)), 420 ± 93 µL/min/mg. In addition, in series [5], the “Extent of metabolism of parent” value is “almost completely metabolized”. For the same compound, the “t1/2 (min) (Mean ± S.D.)” value in series [3] (human liver microsomes, 37°C, presence of NADPH) amounted to 3.3 ± 0.6 min. Besides, at CYP3A4, the “Major CYP isoform responsible for the adamantyl oxidations” value is on record as “CYP3A4”.

The term AUC denotes concentration integrated over time. In general, Tmax refers to the time from dosing to the highest level. One may read the bioavailability as dose-corrected exposure relative to a reference, in per cent. What is called Cmax is the maximum level reached in the sampled fluid or tissue. One may read the Ki as a measure of affinity in units of concentration, obtained from inhibition or displacement.
